{"source": "patent US20240325544A1", "about": "“CATIONIC LIPID FOR COVALENT MODIFICATION OF PEPTIDES” (PharmalN Corporation, priority 2023, published 2024)", "system": "E0771 breast cancer cells", "assay": "Orthotopic mouse model of bone metastasis using breast cancer E0771 cells (FIG. 10)", "assay_type": "in vivo, mice", "description": "FIGS. 10A-10B. […] Error bars indicate standard error of the mean. […] Also illustrated in this diagram are the corresponding schedules for each treatment administered throughout this study. From tumor implantation, SEQ ID NO: 31 treated groups (2, 3, 6, and 7) were dosed SC (0.3 mg/kg/0.1 μmol/kg in buffer 15 mM succinate, 4% (w/v) D-mannitol, 10 mM hydoxypropyl-beta-cyclodextrin pH 4.4) on Days 5-9, 12-16, 19-23, and 26-29; aPD1 treated groups (3, 5, and 7) were dosed IP (5 mg/kg) on Days 5, 7, 12, and 14; and irradiated groups (4, 5, 6, and 7) received buffer and 5 Gy of X-ray radiation in three sets at the bone on Days 5, 8, and 12. Survival was observed until Day 33, following scheduled sacrifice of remaining mice. At this point, tumor sizes were measured using calipers. […] All groups were significant compared to the control group, so statistical analysis was based on Log-rank (Mantel-Cox) test against group 5 (radiation+aPD1) using GraphPad Prism.\nAnimal care and treatment: Female C57BL/6J mice (6 weeks-old) were purchased from Oriental Bioservice (Kobe, Japan) and maintained under a 12-hour light/12-hour dark cycle with free access to water and standard mouse diet (CRF diet; Oriental Yeast Co., Ltd, Tokyo Japan). Implantation and drug administration: Mice were orthotopically implanted with E0771 breast cancer cells (Cosmo Bio Tokyo, Japan; 250,000 cells/mouse in RPMI1640 medium (Fujifilm, Tokyo Japan)) in their left mammary gland and E0771 mouse breast cancer cells (500,000 cells/mouse in 50% Matrigel (Corning, NY, USA, #354234)) in their femur. Mice were then randomized into several treatment groups: 1) control (n=5), 2) SEQ ID NO: 31 (n=5), 3) SEQ ID NO: 31 and aPD1 (n=5), 4) radiation (n=6), 5) radiation and aPD1 (n=5), 6) SEQ ID NO: 31 and radiation (n=6), 7) SEQ ID NO: 31, radiation, and aPD1 (n=6). […] Survival was monitored up to Day 33 (FIG. 10B) post cell inoculation, and following scheduled sacrifice of the remaining mice, tumors were harvested, and sizes were measured using calipers. […]", "note": "Bridge positions count the residues as written; N and C are the ends. Square brackets hold non-standard residues; d marks the D form. Peptide text beside a SMILES is read from it. * marks the point of attachment. Palmitoyl = CCCCCCCCCCCCCCCC(=O)*; Dap = NC[C@H](N)C(=O)O; AEEA = NCCOCCOCC(=O)O"}
{"smiles": "CCCCCCCCCCCCCCCC(=O)NCCOCCOCC(=O)NCCOCCOCC(=O)NCCOCCOCC(=O)N[C@@H](CN)C(=O)N[C@@H](CN)C(=O)NCC(=O)N[C@@H](CC(C)C)C(=O)N[C@@H](CO)C(=O)N[C@@H](CCCCN)C(=O)NCC(=O)N[C@H]1CSSC[C@@H](C(=O)O)NC(=O)CNC(=O)[C@H](CC(C)C)NC(=O)CNC(=O)[C@H](CO)NC(=O)[C@H](CCC(N)=O)NC(=O)[C@H](CO)NC(=O)CNC(=O)[C@H]([C@@H](C)CC)NC(=O)[C@H](CCCNC(=N)N)NC(=O)[C@H](CC(=O)O)NC(=O)[C@H](CC(C)C)NC(=O)[C@H](CCCCN)NC(=O)[C@H](CC(C)C)NC(=O)CNC(=O)[C@H](Cc2ccccc2)NC1=O", "note": "[SEQ ID NO: 31] ({Palmitoyl-AEEA-AEEA-AEEA}-[Dap][Dap]GLSKGCFGLKLDRIGSQSGLGC-OH; disulfide 8-24; C-terminus assumed)", "values": [{"measurement": "Incidence of bone metastasis", "setting": "addition of SEQ ID NO: 31 in all its respective groups", "value": "reduced the incidence of bone metastasis"}, {"measurement": "Mice tumor free in the bone", "setting": "group 6: SEQ ID NO: 31 + radiation", "value": "5 out of 6"}, {"measurement": "Probability of survival vs group 5 (radiation+aPD1)", "setting": "group 7: SEQ ID NO: 31 0.3 mg/kg SC + radiation + aPD1, to Day 33", "value": "significant improvement in survival"}, {"measurement": "Mice tumor free in the bone", "setting": "group 7: SEQ ID NO: 31 + radiation + aPD1", "value": "6 out of 6"}]}
